Results taken from PubChem BioAssay (NCI).
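Test compounds were applied to cells in 96-well plates for 48 hours at 5 doses. TGI is the concentration that stops growth completely.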

Assays:
Assay in all cases: inhibition of tumour cell growth, NCI panel, 48 h
[1] = system: HOP-92 NSCLC
[2] = system: OVCAR-3 ovarian
[3] = system: DMS 273 small cell lung
[4] = system: K-562 leukemia
[5] = system: CCRF-CEM leukemia
[6] = system: RPMI-8226 leukemia
[7] = system: NCI-H522 lung
[8] = system: HCC-2998 colon
[9] = system: CAKI-1 renal
[10] = system: 786-0 renal
[11] = system: LXFL 529 NSCLC
[12] = system: LOX IMVI melanoma
[13] = system: MALME-3M melanoma
[14] = system: SF-268 CNS
[15] = system: ACHN renal
[16] = system: SK-MEL-28 melanoma
[17] = system: RXF-631 renal
[18] = system: EKVX NSCLC
[19] = system: XF 498 CNS
[20] = system: UO-31 renal
[21] = system: IGROV1 ovarian
[22] = system: OVCAR-5 ovarian
[23] = system: SK-MEL-2 melanoma
[24] = system: COLO 205 colon
[25] = system: SNB-78 CNS
[26] = system: MOLT-4 leukemia
[27] = system: KM12 colon
[28] = system: M14 melanoma
[29] = system: OVCAR-4 ovarian
[30] = system: TK-10 renal
[31] = system: KM20L2 colon
[32] = system: UACC-257 melanoma
[33] = system: HOP-62 NSCLC
[34] = system: UACC-62 melanoma
[35] = system: SK-OV-3 ovarian
[36] = system: DLD-1 colon
[37] = system: A549 NSCLC
[38] = system: SW-620 colon
[39] = system: SNB-75 CNS
[40] = system: HCT-15 colon
[41] = system: NCI-H23 lung
[42] = system: M19-MEL melanoma
[43] = system: SNB-19 CNS
[44] = system: HL-60(TB) leukemia
[45] = system: HT29 colon
[46] = system: NCI-H460 lung
[47] = system: RXF 393 renal
[48] = system: OVCAR-8 ovarian
[49] = system: SN12C renal
[50] = system: SK-MEL-5 melanoma
[51] = system: A498 renal
[52] = system: SF-539 CNS
[53] = system: NCI-H226 lung
[54] = system: HCT-116 colon
[55] = system: DMS 114 small cell lung
[56] = system: SR leukemia
[57] = system: SF-295 CNS
[58] = system: HOP-18 NSCLC
[59] = system: U251 CNS

Measured: TGI

CC(C)NCC(O)COC(=O)c1cccs1 (stereo not drawn)
> 100 µM: [1] | [2] | [3] | [4] | [5] | [6] | [7] | [8] | [9] | [10] | [11] | [12] | [13] | [14] | [15] | [16] | [17] | [18] | [19] | [20] | [21] | [22] | [23] | [24] | [25] | [26] | [27] | [28] | [29] | [30] | [31] | [32] | [33] | [34] | [35] | [36] | [37] | [38] | [39] | [40] | [41] | [42] | [43] | [44] | [45] | [46] | [47] | [48] | [49] | [50]

COc1cc(/C=C2\[C@H]3c4c(c(OC)c(C)c(OC)c4OC)C[C@@H](C(=O)N2Cc2ccccc2)N3C(=O)OC(C)C)c(OC)c(C)c1OC
56.2 µM: [53]
> 100 µM: [1] | [2] | [51] | [52] | [3] | [4] | [5] | [6] | [54] | [7] | [8] | [10] | [11] | [12] | [13] | [14] | [15] | [16] | [17] | [18] | [20] | [21] | [22] | [23] | [24] | [26] | [55] | [56] | [27] | [28] | [29] | [30] | [31] | [32] | [57] | [33] | [34] | [35] | [36] | [37] | [38] | [39] | [58] | [41] | [44] | [45] | [46] | [47] | [59] | [48] | [49] | [50]
